Values of other authors as cited in patent US5843891A, “Pharmaceutical acceptable compositions containing an alcohol and a hydrophobic drug” (priority 1993, dated 1998).

Settings: in water at 20° C.

| SMILES | solubility in water |
| --- | --- |
| CCCCCCCCCCO [1-decyl alcohol] | essentially insoluble |
| CCCCCCCCO [1-octyl alcohol] | 0.05 g per 100 g |
| CCCCCCO [Example 1-hexyl, 1-hexyl] | 0.6 g per 100 g |
| CCO [ethyl alcohol] | infinitely soluble |
